SMILES strings stand for the structures.

The target of one experiment is T1, PI3K beta (Homo sapiens, UniProt P42338).
T1 construct: for the full-length p110-b subunit are generated and fused by overlapping PCR; p85(iSH2) fusion partner (see partner chain) (N); His tag (C); made in house; host or cells: baculovirus; Tn5 (Trichoplusia ni) or TiniPro insect cells
Kind of experiment: PI3K beta kinase assay (Kinase-Glo luminescence). It counts as biochemical. Summed up:
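Full-length p110β with a Gly-linked p85 iSH2 and a C-terminal His tag (BV949, 25 nM) was incubated with 10 μg/mL phosphatidylinositol and 1 μM ATP in 10 mM Tris pH 7.5, 3 mM MgCl2, 50 mM NaCl, 0.05% CHAPS, 1 mM DTT for 60 min at room temperature. Residual ATP was read by Kinase-Glo luminescence.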

Experiment [1] deals with S6 Ribosomal Protein phosphorylation Ser235/236 in TSC1 null mouse embryo fibroblast (MEF) cells. Kind of experiment: Reverse protein array assay, S6 Ribosomal Protein phosphorylation Ser235/236 in TSC1 null MEF cells. It counts as cell-based. Conditions: 1 h, pS6 ribosomal protein Ser235/236, 60 minutes incubation, read-out: p-S6 IC50. The gist of the method:
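TSC1−/− MEFs, seeded and held ≥20 h at 37 °C/5% CO2, were exposed to 8-step serial compound dilutions (0.02% DMSO final; DMSO vehicle control) for 60 min at 37 °C. Cells were then lysed on ice for 10 min and lysates spotted onto reverse protein array chips.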

The test system of experiment [2] is PKB Ser473 phosphorylation in Rat1-myr-HA-p110 delta cells. As to the kind of experiment: Reverse protein array assay, PKB Ser473 phosphorylation in Rat1-myr-p110 delta cells. Conditions: read-out: p-PKB IC50. It counts as cell-based. The gist of the method: (§1)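 Cells: Rat1-myr-HA-p110 alpha/beta/delta, seeded ≥20 h. Lysis on ice 10 min; reverse-phase protein array, 4 lysate dilutions; fluorescence read, relative intensity.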

Experiment [3] concerns PKB Ser473 phosphorylation in Rat1-myr-HA-p110 alpha cells. As to the kind of experiment: Reverse protein array assay, PKB Ser473 phosphorylation in Rat1-myr-p110 alpha cells. The format is cell-based. Conditions: 0.5 h, pAkt Ser473, 30 minutes compound incubation, read-out: p-PKB IC50. The gist of the method:
as §1

T1 sequence (P42338 with tags, fused parts or gaps limits assumed): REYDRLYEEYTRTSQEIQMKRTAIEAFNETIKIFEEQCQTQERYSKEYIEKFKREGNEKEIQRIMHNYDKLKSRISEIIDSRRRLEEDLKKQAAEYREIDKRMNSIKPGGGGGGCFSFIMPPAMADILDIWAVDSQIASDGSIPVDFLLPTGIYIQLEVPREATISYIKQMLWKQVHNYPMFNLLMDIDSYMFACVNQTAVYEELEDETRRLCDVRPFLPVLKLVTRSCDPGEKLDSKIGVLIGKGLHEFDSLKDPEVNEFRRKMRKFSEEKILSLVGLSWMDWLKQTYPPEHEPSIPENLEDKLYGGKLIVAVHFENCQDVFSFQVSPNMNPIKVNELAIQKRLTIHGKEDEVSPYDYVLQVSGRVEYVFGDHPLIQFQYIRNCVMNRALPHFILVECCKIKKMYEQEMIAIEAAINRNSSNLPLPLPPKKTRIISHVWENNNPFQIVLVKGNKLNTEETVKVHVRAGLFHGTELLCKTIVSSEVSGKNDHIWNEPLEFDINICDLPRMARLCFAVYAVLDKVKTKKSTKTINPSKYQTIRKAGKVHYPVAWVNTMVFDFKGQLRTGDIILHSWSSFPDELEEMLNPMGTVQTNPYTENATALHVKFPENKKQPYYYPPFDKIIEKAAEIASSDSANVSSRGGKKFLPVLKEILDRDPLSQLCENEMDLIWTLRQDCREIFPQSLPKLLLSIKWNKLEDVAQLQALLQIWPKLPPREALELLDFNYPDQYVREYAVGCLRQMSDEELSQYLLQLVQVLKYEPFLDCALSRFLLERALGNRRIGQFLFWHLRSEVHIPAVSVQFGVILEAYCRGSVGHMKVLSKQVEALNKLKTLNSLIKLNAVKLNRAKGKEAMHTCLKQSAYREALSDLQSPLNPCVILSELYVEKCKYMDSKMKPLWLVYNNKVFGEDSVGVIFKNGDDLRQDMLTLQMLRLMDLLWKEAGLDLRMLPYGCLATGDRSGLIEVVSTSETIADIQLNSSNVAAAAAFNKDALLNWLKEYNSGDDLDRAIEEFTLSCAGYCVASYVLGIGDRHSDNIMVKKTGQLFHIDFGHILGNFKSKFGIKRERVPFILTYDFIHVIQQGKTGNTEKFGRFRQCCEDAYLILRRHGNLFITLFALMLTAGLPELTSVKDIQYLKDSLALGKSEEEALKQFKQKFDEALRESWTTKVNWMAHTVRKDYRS

Broadly, the IC50 is the point on the concentration scale where inhibition reaches its midpoint. With `CCc1ncc(-c2ccc3ncc4c(c3c2)n(-c2cn(C)nc2C)c(=O)n4C)cc1N` [Example 208, 8-(5-Amino-6-ethyl-pyridin-3-yl)-1-(1,3-dimethyl-1H-pyrazol-4-yl)-3-methyl-1,3-dihydro-imidazo[4,5-c]quinolin-2-one], the IC50 on PI3K beta worked out at 76 nM; in experiment [1], 5 nM; in experiment [2] it was 83 nM; in experiment [3], 20 nM.

Regarding `Cn1cc(-n2c(=O)n(C)c3cnc4ccc(-c5cncc(C(C)(C)C#N)c5)cc4c32)c(Cl)n1` [Example 220.3, 2-{5-[1-(3-Chloro-1-methyl-1H-pyrazol-4-yl)-3-methyl-2-oxo-2,3-dihydro-1H-imidazo[4,5-c]quinolin-8-yl]-pyridin-3-yl}-2-methyl-propionitrile], the IC50 on PI3K beta was 7 nM; in experiment [1], under 0.5 nM; in experiment [2] it was 13 nM; in experiment [3] it was 6 nM.

For `Cc1nn(C)cc1-n1c(=O)n(C)c2cnc3ccc(-c4cncc(C5(C#N)CCC5)c4)cc3c21` [Example 221.1, 1-{5-[1-(1,3-Dimethyl-1H-pyrazol-4-yl)-3-methyl-2-oxo-2,3-dihydro-1H-imidazo[4,5-c]quinolin-8-yl]-pyridin-3-yl}-cyclobutanecarbonitrile], the IC50 was 23 nM at PI3K beta, 1 nM in experiment [1], 41 nM in experiment [2] and 14 nM in experiment [3].

For `CCN1C(=O)OCc2ncc(-c3ccc4ncc5c(c4c3)n(-c3cn(C)nc3C)c(=O)n5C)cc21` [Example 237, 1-(1,3-Dimethyl-1H-pyrazol-4-yl)-8-(1-ethyl-2-oxo-1,4-dihydro-2H-pyrido[3,2-d][1,3]oxazin-7-yl)-3-methyl-1,3-dihydro-imidazo[4,5-c]quinolin-2-one], the IC50 came out at 7 nM on PI3K beta, 6 nM in experiment [1], 49 nM in experiment [2] and 18 nM in experiment [3].

Turning to `CCn1c(=O)n(-c2cn(C)nc2C)c2c3cc(-c4cncc(N)c4)ccc3ncc21` [Example 245, 8-(5-Amino-pyridin-3-yl)-1-(1,3-dimethyl-1H-pyrazol-4-yl)-3-ethyl-1,3-dihydro-imidazo[4,5-c]quinolin-2-one], the IC50 worked out at 162 nM at PI3K beta, 43 nM in experiment [1], 719 nM in experiment [2] and 730 nM in experiment [3].

(Values after patent publication US20140005163A1 (NOVARTIS AG, priority 2010, published 2014).)
